Measured values: ChEMBL document CHEMBL4020801, “New merosesquiterpenes from a Vietnamese marine sponge of Spongia sp. and their biological activities” (Bioorg Med Chem Lett, 2017)
In brackets after ≈: the same amount, converted by molar mass.

Key:
MCF7 = assay: Cytotoxicity against human MCF7 cells assessed as decrease in cell viability after 72 hrs by WST8 assay; type: functional, cell-based; conditions: MCF7, 72 h
Staphylococcus aureus = assay: Antibacterial activity against Staphylococcus aureus NBRC 100910 after 12 hrs by MTT assay; type: functional; conditions: NBRC 100910, 12 h
A549 = assay: Cytotoxicity against human A549 cells assessed as decrease in cell viability after 72 hrs by WST8 assay; type: functional, cell-based; conditions: A549, 72 h
HeLa = assay: Cytotoxicity against human HeLa cells assessed as decrease in cell viability after 72 hrs by WST8 assay; type: functional, cell-based
WI-38 = assay: Cytotoxicity against human WI38 cells assessed as decrease in cell viability after 72 hrs by WST8 assay; type: cell-based; conditions: WI-38, 72 h
Escherichia coli = assay: Antibacterial activity against Escherichia coli NBRC 102203 after 12 hrs by MTT assay; type: functional; conditions: NBRC 102203, 12 h
Klebsiella pneumoniae = assay: Antibacterial activity against Klebsiella pneumoniae NBRC 14940 after 12 hrs by MTT assay; type: functional; conditions: NBRC 14940, 12 h
Bacillus subtilis = assay: Antibacterial activity against Bacillus subtilis NBRC 13719 after 12 hrs by MTT assay; type: functional; conditions: NBRC 13719, 12 h

SMILES | IC50 (MCF7) [µM] | MIC (Staphylococcus aureus) [µM] | IC50 (A549) [µM] | IC50 (HeLa) [µM] | IC50 (WI-38) [µM] | MIC (Escherichia coli) [µM] | MIC (Klebsiella pneumoniae) [µM] | MIC (Bacillus subtilis) [µM]
C=C1CCC[C@H]2[C@](C)(CC3=C(O)C(=O)C=C(NCCc4ccccc4)C3=O)[C@@H](C)CC[C@]12C | 6.5 | 6.25 (≈ 2.8 µg/mL) | 4 | 5 | 3 | > 100 | > 100 | 6.25 (≈ 2.8 µg/mL)
C=C1CCC[C@@H]2[C@@](C)(Cc3cc(C(=O)OC)cc(O)c3O)[C@H](C)CC[C@@]12C | > 50 | 6.25 (≈ 2.33 µg/mL) | > 50 | > 50 | > 50 | > 100 | > 100 | 6.25 (≈ 2.33 µg/mL)
C=C1CCC[C@@H]2[C@@](CO)(Cc3cc(C(=O)OC)c(O)c(OC)c3O)[C@H](C)CC[C@@]12C | > 50 | > 100 | > 50 | > 50 | 42.1 | > 100 | > 100 | > 100
NC[C@H]1O[C@H](O[C@H]2[C@H](O)[C@@H](O[C@H]3O[C@H](CO)[C@@H](O)[C@H](N)[C@H]3O)[C@H](N)C[C@@H]2N)[C@H](O)[C@@H](O)[C@@H]1O [KANAMYCIN] |  |  |  |  |  | 12.5 (≈ 6.06 µg/mL) | 6.25 (≈ 3.03 µg/mL) | 
CC1(C)S[C@@H]2[C@H](NC(=O)[C@H](N)c3ccccc3)C(=O)N2[C@H]1C(=O)O [AMPICILLIN] |  | 6.25 (≈ 2.18 µg/mL) |  |  |  |  |  | 6.25 (≈ 2.18 µg/mL)
C=C1CCC[C@@H]2[C@@](C)(Cc3cc(C(=O)OC)cc(OC)c3O)[C@H](C)CC[C@@]12C | > 50 | > 100 | > 50 | > 50 | > 50 | > 100 | > 100 | > 100
C=C1CCC[C@H]2[C@](C)(CC3=C(O)C(=O)C=C(OCCCC)C3=O)[C@@H](C)CC[C@]12C | 9.6 | 12.5 (≈ 5.01 µg/mL) | 6.6 | 7.6 | 8.2 | > 100 | > 100 | 6.25 (≈ 2.5 µg/mL)
C=C1CCC[C@@H]2[C@@](C=O)(Cc3cc(C(=O)OC)cc(OC)c3O)[C@H](C)CC[C@@]12C | > 50 | > 100 | > 50 | > 50 | > 50 | > 100 | > 100 | > 100
C=C1CCC[C@@H]2[C@@](C=O)(Cc3cc(C(=O)OC)c(O)c(OC)c3O)[C@H](C)CC[C@@]12C | 5 | > 100 | 7.8 | 7.2 | 8.7 | > 100 | > 100 | 25 (≈ 10.4 µg/mL)
C=C1CCC[C@@H]2[C@@](C)(Cc3cc(C(=O)OC)c(O)c(OC)c3O)[C@H](C)CC[C@@]12C | > 50 | > 100 | > 50 | > 50 | > 50 | > 100 | > 100 | 12.5 (≈ 5.03 µg/mL)
C=C1CCC[C@H]2[C@](C)(CC3=C(O)C(=O)C=C(NCC(C)CC)C3=O)[C@@H](C)CC[C@]12C (some centres not stated) | 7.6 | 6.25 (≈ 2.59 µg/mL) | 8.9 | 4.8 | 6.9 | > 100 | > 100 | 6.25 (≈ 2.59 µg/mL)
C=C1CCC[C@H]2[C@](C)(CC3=C(O)C(=O)C=C(NCC(C)C)C3=O)[C@@H](C)CC[C@]12C | 4.6 | 25 (≈ 9.99 µg/mL) | 6.7 | 7.6 | 3.5 | > 100 | > 100 | 12.5 (≈ 4.99 µg/mL)
C=C1CCC[C@H]2[C@](C)(CC3=C(O)C(=O)C=C(OC)C3=O)[C@@H](C)CC[C@]12C [ILIMAQUINONE] | 8.3 | 6.25 (≈ 2.24 µg/mL) | 5.9 | 7.6 | 9.7 | > 100 | > 100 | 6.25 (≈ 2.24 µg/mL)
O=c1[nH]cc(F)c(=O)[nH]1 [FLUOROURACIL] | 5.6 |  | 4.7 | 5.3 | 6.8 |  |  | 
C=C1CCC[C@H]2[C@](C)(CC3=C(O)C(=O)C=C(NCCCSC)C3=O)[C@@H](C)CC[C@]12C | 8.7 | 12.5 (≈ 5.4 µg/mL) | 6.2 | 8 | 8.8 | > 100 | > 100 | 12.5 (≈ 5.4 µg/mL)
C=C1CCC[C@@H]2[C@@](CO)(Cc3cc(C(=O)OC)cc(OC)c3O)[C@H](C)CC[C@@]12C | 42.6 | > 100 | > 50 | > 50 | > 50 | > 100 | > 100 | > 100
